# Legend:
# Septonia tritici = assay: Plant relevant mold panel, microtiter plate growth inhibition (OD 405 nm), IC 90; type: cell-based; settings: Septonia tritici (Wheat Leaf); 18° C. for 7 days
# [1] = test system: roundworms, threadworms, and whipworms; settings: reported; cited from earlier work
# Fusarium culmorum = Fusarium culmorum (Wheat Head); 18° C. for 7 days
# Description: (§1) A stock solution of the compound was prepared in DMSO at a concentration of 10,000 ppm a.i. Further dilutions were prepared with water. The test was conducted at the following concentrations: 125, 31, 8, 21, 0.5 and 0.125 ppm a.i. Spore suspensions of the fungi were prepared. The test was conducted in microtiter plates and for each fungus and each concentration, 3 wells were prepared. Incubation of the inoculated plates was carried out at 18° C. for 7 days. After this time, the optical density of the mycelium developed in each well was measured at 405 nm.
# Cochliobolus mijabeanus = Cochliobolus mijabeanus (Corn); 18° C. for 7 days
# Description: as §1
# [2] = test system: Colletotrichum lagenarium; assay: Plant relevant mold panel, microtiter plate growth inhibition (OD 405 nm), IC 90; type: cell-based; settings: Colletotrichum lagenarium (Mellons); 18° C. for 7 days
# Botrytis cinerea = assay: as above; type: cell-based; settings: Botrytis cinerea (Vegetable); 18° C. for 7 days
# Pyrenophora teres = assay: as above; type: cell-based; settings: Pyrenophora teres (Barley); 18° C. for 7 days
# Rhizoctonia solani = assay: as above; type: cell-based; settings: Rhizoctonia solani (Rice Sheath); 18° C. for 7 days
# Phytophthora infestans = Phytophthora infestans (Tomato); 18° C. for 7 days
# Pyricularia oryzae = Pyricularia oryzae (Rice); 18° C. for 7 days
# Alternaria solani = Alternaria solani (Potato); 18° C. for 7 days
# Description: as §1
# Streptococcus algalactia = settings: in vitro, 24 hours at 35° C.
# Aspergillus fumigatus = settings: in vitro, 24 hours at 35 degrees C.
# Candida tropicalis = settings: in vitro, 24 hours at 35 degrees C.
# Bordella bronchiseptica = settings: in vitro, 24 hours at 35° C.
# Staphylococcus aureus = settings: in vitro, 24 hours at 35° C.
# Vibrio cholerae = settings: in vitro, 24 hours at 35° C.
# Streptococcus faecalis = settings: in vitro, 24 hours at 35° C.
# Cryptococcus neoformans = settings: in vitro, 24 hours at 35 degrees C.
# Fusarium solani = settings: in vitro, 24 hours at 35 degrees C.
# Pasturella multocida = settings: in vitro, 24 hours at 35° C.
# Streptococcus pyogenes = settings: in vitro, 24 hours at 35° C.
# [3] = test system: Trichophyton mentagrophyt
# Aspergillus flavus = settings: in vitro, 24 hours at 35 degrees C.
# E. coli = settings: in vitro, 24 hours at 35° C.
# Pseudomonas aerugenosa = settings: in vitro, 24 hours at 35° C.
# Candida albicans = settings: in vitro, 24 hours at 35 degrees C.
molecule,measurement,setting,value
CC[n+]1c(/C=C/c2ccc(N3CCCC3)cc2)cccc1/C=C/c1ccc(N2CCCC2)cc1.[I-] [Stilbazium iodide],IC90,Septonia tritici,2 ppm a.i.
same,anthelmintic effectiveness,[1],effective
same,IC90,Fusarium culmorum,>125 ppm a.i.
same,IC90,Cochliobolus mijabeanus,>125 ppm a.i.
same,IC90,[2],31 ppm a.i.
same,IC90,Botrytis cinerea,0.5 ppm a.i.
same,IC90,Pyrenophora teres,31 ppm a.i.
same,IC90,Rhizoctonia solani,2 ppm a.i.
same,IC90,Phytophthora infestans,2 ppm a.i.
same,IC90,Pyricularia oryzae,8 ppm a.i.
same,IC90,Alternaria solani,>125 ppm a.i.
Stilbazium Chloride [formula I],MIC,Streptococcus algalactia,1.0 µg/mL
same,MIC,Trichophyton rubrum,1.6 µg/mL
same,MIC,Rhizopus arrihizus,6.25 µg/mL
same,MIC,Trichophyton eguinium,1.6 µg/mL
same,MIC,Saccharomyces cervisciae,<0.4 µg/mL
same,MIC,Aspergillus fumigatus,<0.006 µg/mL
same,MIC,Candida tropicalis,<0.4 µg/mL
same,MIC,Bordella bronchiseptica,1.0 µg/mL
same,MIC,Epidermophyton floccsum,1.6 µg/mL
same,MIC,Staphylococcus aureus,0.3 µg/mL
same,MIC,Microsporidium gypseum,1.6 µg/mL
same,MIC,Vibrio cholerae,10.0 µg/mL
same,MIC,Streptococcus faecalis,1.0 µg/mL
same,MIC,Cryptococcus neoformans,<0.4 µg/mL
same,MIC,Fusarium solani,<0.4 µg/mL
same,MIC,Pasturella multocida,3.0 µg/mL
same,MIC,Streptococcus pyogenes,1.0 µg/mL
same,MIC,[3],1.6 µg/mL
same,MIC,Aspergillus flavus,6.25 µg/mL
same,MIC,E. coli,>100 µg/mL
same,MIC,Pseudomonas aerugenosa,>100 µg/mL
same,MIC,Microsporidium canis,1.6 µg/mL
same,MIC,Candida albicans,<0.006 µg/mL
